Test results taken from PMC12097015, “Development of MDM2‐Targeting PROTAC for Advancing Bone Regeneration” (Advanced Science, 2025).
Read-outs that look alike come from different tables or passages of the source.

How the values were obtained:
[1] = target: T1, IKZF1 (Homo sapiens, UniProt Q13422); assay: Neo-substrate off-target immunoblot in hBMSCs; type: cell-based; conditions: 10 µM, conditions with MDM2 degradation ≈70%
T1 construct: endogenous in cells; host or cells: hBMSCs
Description: After discarding the medium and washing the cells twice with cold dPBS, the cells were collected using a scraper and lysed using RIPA buffer (GenDEPOT, R4200‐010) containing protease and phosphatase inhibitors (GenDEPOT, P3200‐001). The collected samples were centrifuged at 13 200 rpm for 10 min at 4 °C, and the supernatant containing total protein was collected. SDS‐PAGE gels (10–12%) were prepared, and protein samples were mixed with 5X loading buffer containing reducing agent (Biosesang, S2002) and heated at 98 °C for 5 min. Equal amounts of protein samples were loaded onto a gel, separated by electrophoresis, and transferred onto nitrocellulose membranes using a Dry Transfer Stacks Kit (Invitrogen, IB23001). The membrane was blocked with 5% nonfat milk in 1X TBST for 1 h at room temperature to prevent nonspecific binding. The membranes were incubated with primary antibodies specific to the target proteins overnight at 4 °C with gentle shaking. The next day, the membrane was washed three times with TBST at 10 min intervals to remove unbound primary antibodies. The membranes were incubated with secondary antibodies (anti‐rabbit and anti‐mouse) conjugated to horseradish peroxidase (HRP) for 1 h at room temperature. The membrane was washed three times with 1X TBST at 10 min intervals to remove unbound secondary antibodies. […]

[2] = system: osteocalcin (OCN); assay: Immunostaining of osteogenic markers in hBMSCs; type: cell-based, human; conditions: 10 µM
[3] = Pharmacokinetic study in BALB/c mice; type: in vivo; conditions: mouse, plasma; for MRT last: read-out: MRT0–t; for MRT inf: read-out: MRT0–∞
Description: Pharmacokinetic (PK) studies of CL144 were conducted by Medicilon Preclinical Research (Shanghai) LLC. Six BALB/c mice were divided into two groups, and CL144 was administered by tail vein injection (iv; 1.0 mg kg^−1) or gavage (po; 10 mg kg^−1). Blood samples were collected from the submandibular vein at 0.083, 0.25, 0.5, 1, 4, and 24 h for the iv group and at 0.25, 0.5, 1, 3, 6, and 24 h for the po group. Blood samples were centrifuged at 6800 x g for 6 min at 2–8 °C within 1 h after collection and stored at ≈−80 °C. Plasma samples were analyzed by LC‐MS/MS (TQ6500+), and PK parameters were calculated using the FDA‐certified pharmacokinetic program Phoenix WinNonlin 7.0 (Pharsight, USA).

[4] = system: OVX-induced osteoporosis model; assay: Ovariectomy (OVX)-induced osteoporosis mouse model; type: in vivo, C57BL6 mice; conditions: OVX mice
Description: -Establishment of Ovariectomized Mice Model: The experimental protocols were approved by the IACUC (Approval code: IACUC230118) at the CHA Laboratory Animal Research Center. The mice were handled in compliance with the Guidelines for the Care and Use of Animals at the institution. Female C57BL6 mice (seven weeks old (n = 57)) were randomly divided into six groups (n = 8-10): […] All surgeries and pump implantations were performed under aseptic conditions. Mice were anesthetized before removing both sides of the ovaries. In the fourth week following surgery, an Alzet osmotic pump (Durect Corp, #1004) was implanted in the mice. […] Images were acquired at an effective pixel size of 50 μm (130 kV and 60 μA radiation source; 1.0 mm aluminum filter). Subsequently, 3D images were reconstructed from the 2D X-ray projections by implementing the Feldkamp algorithm, and appropriate image corrections, including ring artifact correction, beam hardening correction, and fine-tuning, were processed using NRecon software (SkyScan 1173, Belgium). The dynamic image range (contrast limits) was determined at 0-0.3 in units of attenuation coefficient and was applied to all datasets for optimum image contrast. After acquisition and reconstruction of the datasets, images were first reoriented on each 3D plane using DataViewer software (SkyScan 1173, Belgium) to align the long axis of the femur parallel to the coronal and sagittal planes. Next, 3D morphometric analyses of the distal femur and body of the lumbar vertebrae were performed using CT-Analyzer software (SkyScan 1173, Belgium). Regarding the region of interest (ROI), this work analyzed the 1.5 mm […] trabecular bone of the distal femur metaphysis, excluding the growth plate. The ROIs were delineated using a freehand drawing tool while maintaining a […] clearance from the endosteal surface. […] A global threshold of 60 (1.01573 g cm^-3) was applied to all scans to extract a physiologically accurate representation of the trabecular bone phase. […] All quantitative and structural parameters followed the nomenclature and units recommended by the American Society for Bone and Mineral Research (ASBMR) Histomorphometry Nomenclature Committee. After data quantification,^[ [26b] ^] 3D rendered images were generated to visualize the analyzed regions using the marching cube method. -H&E staining: Following decalcification, the specimens were fixed in paraffin and longitudinally sliced to a thickness of 3 μm using a microtome. Subsequently, each sample was affixed to a slide and exposed to a temperature of 55 °C. […] The slides underwent a 1 min wash in flowing purified water and immersed in Harris hematoxylin-I for 5 min, followed by a 1 min wash under flowing tap water. Sections were briefly immersed in ammonia water for 30 s and washed with tap water for 3 min. Subsequently, the sections were stained with Eosin Y for 2 min and 30 s, followed by gradual drying in 95%-100% ethanol. Any residual stain was rinsed with distilled water and each section was mounted. -Masson's trichrome staining: Following deparaffinization and hydration, the sections underwent treatment with a mordant containing a 5% iron alum solution in a dry oven at 56 °C for 30 min. Sections were washed under running tap water for 5-6 min to remove picric acid. Sections were stained with Weigert's iron hematoxylin solution for 10 min, followed by rinsing with purified water. A 5 min staining with Biebrich scarlet-acid fuchsin solution ensued, succeeded by washing with purified water. The sections were immersed in a phosphomolybdic-phosphotungstic acid solution for 5 min. After discarding the solution, the sections were washed with distilled water. Differentiation was performed in 1% glacial acetic acid solution for 3 min. The solution was discarded, and the remaining stain was washed with distilled water.

[5] = 0.5 mg kg^−1, osmotic pump 28 days
[6] = 0.5 mg kg^−1, same concentration of Nutlin‐3

T1 sequence (Q13422 whole entry): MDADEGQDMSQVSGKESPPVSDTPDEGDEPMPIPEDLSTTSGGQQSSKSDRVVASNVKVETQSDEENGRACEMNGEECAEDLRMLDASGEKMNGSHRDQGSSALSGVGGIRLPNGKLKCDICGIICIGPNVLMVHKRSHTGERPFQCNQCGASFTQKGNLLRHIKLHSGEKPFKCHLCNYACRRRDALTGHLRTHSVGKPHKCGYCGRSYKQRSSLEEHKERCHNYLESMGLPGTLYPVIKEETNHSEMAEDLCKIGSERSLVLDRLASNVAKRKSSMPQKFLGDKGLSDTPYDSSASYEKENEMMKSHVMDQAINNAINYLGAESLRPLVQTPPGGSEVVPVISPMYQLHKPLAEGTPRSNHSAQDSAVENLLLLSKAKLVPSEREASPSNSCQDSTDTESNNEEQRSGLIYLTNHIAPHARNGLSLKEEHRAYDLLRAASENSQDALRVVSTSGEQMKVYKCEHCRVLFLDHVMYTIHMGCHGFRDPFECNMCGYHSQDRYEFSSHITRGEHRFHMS

Structure (SMILES): COc1ccc(C2=N[C@H](c3ccc(Cl)cc3)[C@H](c3ccc(Cl)cc3)N2C(=O)N2CCN(CC(=O)NCCCCCCCCOc3cccc4c3C(=O)N(C3CCC(=O)NC3=O)C4=O)C(=O)C2)c(OC(C)C)c1 (stereo in doubt) [CL144]
- IKZF1 reduction [1]: about 35%
- osteocalcin (OCN) protein intensity compared to the control group [2]: no statistically significant difference
- AUC(0-inf) ([3]; 1.0 mg kg^−1 (iv)): 546 ± 39 ng·h/mL
- AUC(0-t) ([3]; 1.0 mg kg^−1 (iv)): 532 ± 35 ng·h/mL
- Cmax ([3]; 1.0 mg kg^−1 (iv)): 1630 ± 111 ng/mL
- Tmax ([3]; 1.0 mg kg^−1 (iv)): 4.98 min
- clearance ([3]; 1.0 mg kg^−1 (iv)): 30.6 ± 2.1 mL/min/kg
- half-life ([3]; 1.0 mg kg^−1 (iv)): 70.8 ± 6.6 min
- MRT last ([3]; 1.0 mg kg^−1 (iv)): 16.8 ± 1.2 min
- MRT inf ([3]; 1.0 mg kg^−1 (iv)): 25.2 ± 3.6 min
- Vd ([3]; 1.0 mg kg^−1 (iv), read-out: V ss): 0.774 ± 0.092 L/kg
- AUC(0-t) ([3]; 1 mg kg^−1, intravenous administration): 532 ng·h/mL
- AUC(0-inf) ([3]; 10 mg kg^−1 (po)): 256 ± 49 ng·h/mL
- AUC(0-t) ([3]; 10 mg kg^−1 (po)): 252 ± 44 ng·h/mL
- Cmax ([3]; 10 mg kg^−1 (po)): 106 ± 9 ng/mL
- Tmax ([3]; 10 mg kg^−1 (po)): 49.8 ± 17.4 min
- bioavailability ([3]; 10 mg kg^−1 (po)): 4.74 ± 0.83%
- half-life ([3]; 10 mg kg^−1 (po)): 55.8 ± 15.6 min
- MRT last ([3]; 10 mg kg^−1 (po)): 94.8 ± 21.6 min
- MRT inf ([3]; 10 mg kg^−1 (po)): 100 ± 27.6 min
- regenerative effect compared with alendronate ([4]; 0.5 mg kg^−1): results comparable to those of the alendronate‐treated group
- recovery in BV/TV compared to the OVX group [4, 5]: 65%
- recovery in Tb.N compared to the OVX group [4, 5]: 58%
- improvement in BV/TV compared to the Nutlin‐3 group [4, 6]: 56%
- improvement in Tb.N compared to the Nutlin‐3 group [4, 6]: 61%
- recovery in BMD compared to the OVX group ([4]; 1 mg kg^−1, osmotic pump 28 days): 12%
- improvement in BMD compared to the Nutlin‐3 group ([4]; 1 mg kg^−1, same concentration of Nutlin‐3): 13%
- bone histology (H&E staining) versus OVX group ([4]; tibia and femur tissues): newly formed trabecular structures were observed
